Assay results reported in US4980474A, “Apovincaminic acid derivatives” (Taisho Pharmaceutical Co., Ltd., priority 1988, dated 1990).

What was measured:
[1] = test system: femoral artery; assay: Effect on increase of blood flow, femoral artery (anesthetized dogs); format: in vivo; conditions: 50 μg/kg intraarterially
Protocol: (§1) Effect on increase of blood flow was examined using dogs anesthetized with 5% pentbarbital sodium (30 mg/kg). The drugs [2-nitroxyethyl (+)-apovincaminate and 3-nitroxyl-n-propyl apovincaminate of the present invention and ethyl (+)-apovincaminate as control] were administered intraarterially in an amount of each 50 μg/kg, comparisons were made of the blood flows in the femoral artery, vertebral artery and common coronary artery before and after administration of the drugs, and the increase ratios of the blood flows were expressed by percent in Table 1.

[2] = test system: vertebral artery; assay: Effect on increase of blood flow, vertebral artery (anesthetized dogs); format: in vivo; conditions: 50 μg/kg intraarterially
Protocol: as §1

[3] = test system: common coronary artery; assay: Effect on increase of blood flow, common coronary artery (anesthetized dogs); format: in vivo; conditions: 50 μg/kg intraarterially
Protocol: as §1

[4] = test system: basilar and femoral artery rings, K^+ contraction; assay: Inhibition of basilar and femoral artery contraction induced by K^+; parameters: species or system Mongrel dogs; conditions: Canis lupus familiaris; 64 mM K^+; Krebs-Ringer, isolated dog artery rings
Protocol: (§2) The test was carried out according to the method of Sonia Jancar et al described in European Journal of Pharmacology, vol. 136, page 345 (1987). Mongrel dogs were killed by anesthetization with pentbarvital (60 mg/kg), the brain was rapidly removed, and the basilar artery was dissected. The femoral artery was picked up at the same time. The isolated blood vessel was cut into rings 5 mm wide, which were soaked in 5 ml of a Krebs-Ringer solution under a resting tension of 1 g. The solution was kept with 95% oxygen and 5% carbon dioxide. To each of the solution in which the blood vessel rings were soaked were added 64 mM of potassium ion (K^+), 10^-5 M of norepinefurin (NE) and 10^-6 M of serotonine (5HT), respectively, and the resulting blood contractions were measured by FD pick up. To the blood vessel rings each was administered the drug [2-nitroxyethyl (+)-apovincaminate of the present invention and ethyl (+)-apovincaminate as control], and the concentrations (IC50) required to produce 50% inhibitions of the contractions by the administration of K^+, NE and 5TH, respectively, were measured.

[5] = test system: basilar and femoral artery rings, NE contraction; assay: Inhibition of basilar and femoral artery contraction induced by norepinephrine (NE); parameters: species or system Mongrel dogs; conditions: Canis lupus familiaris; 10^-5 M norepinephrine; Krebs-Ringer, isolated dog artery rings
Protocol: as §2

[6] = test system: basilar and femoral artery rings, 5HT contraction; assay: Inhibition of basilar and femoral artery contraction induced by serotonin (5HT); parameters: species or system Mongrel dogs; conditions: Canis lupus familiaris; 10^-6 M serotonin; Krebs-Ringer, isolated dog artery rings
Protocol: as §2

[7] = test system: spontaneous spindle bursts (abnormal EEG pattern in aged rats); assay: Improvement of abnormalities of electroencephalogram (EEG) in aged rats; format: in vivo, male Wistar rats; conditions: 10 mg/kg intraperitoneally; for Time up to which the spontaneous spindle burst reappeared: aged rats 23-24 months; for increment of the time up to which the spontaneous spindle wave reappeared versus group treated with vitamin C only: number in parentheses
Protocol: Six male Wistar rats (23-24 months old) were used for each group. The electrodes were implanted on the frontal and occipital cortexes and hippocamus, and the rats were housed for 14 days for applying to the test. The rats operated were each put into an acoustically shielded box with the minimum light amount and tamed for 60 minutes while keeping the behavior free, and then the recording of EEG was started. Thirty minutes after the starting the recording of EEG, the drug (used the same as those in Experiment 2) dissolved in 1 ml of an aqueous vitamin C solution was intraperitoneally administered in the amount of 10 mg per 1 kg of the body weight of the rat. The spontaneous spindle bursts (abnormal EEG pattern in aged rats) were disappeared after the intraperitoneal administration and reappeared after a certain time. [Neurobiology of Aging, vol. 7, page 115 (1986)]. The time up to which the spontaneous spindle burst reappeared was measured. Group which received 10% aqueous vitamin C solution only was tested for comparison. Number in parentheses means the increment of the time (minutes) up to which the spontaneous spindle wave reappeared after the drug administration when compared with that of the group treated with vitamin C only.

| IC50 [4] | IC50 [5] | IC50 [6] | Structure (SMILES) | Increase of blood flow, Femoral artery [1] | Increase of blood flow, Bertebral artery [2] | Increase of blood flow, Common coronary artery [3] | activity relative to drug B (control) in terms of the increment of the time up to which the spontaneous spindle burst reappeared ([7]; aged rats) | Time up to which the spontaneous spindle burst reappeared [7] | increment of the time up to which the spontaneous spindle wave reappeared versus group treated with vitamin C only ([7]; aged rats) |
| --- | --- | --- | --- | --- | --- | --- | --- | --- | --- |
|  |  |  | CC[C@@]12C=C(C(=O)OCCCO[N+](=O)[O-])n3c4c(c5ccccc53)CCN(CCC1)[C@H]42 [3-Nitroxy-n-propyl (+)-apovincaminate] | 28.2% | 45.7% | 44.3% |  |  |  |
| 1.17 µM | 22.3 µM | 6.02 µM | CC[C@@]12C=C(C(=O)OCCO[N+](=O)[O-])n3c4c(c5ccccc53)CCN(CCC1)[C@H]42 [Drug A, 2-nitroxyethyl (+)-apovincaminate] | 86.8% | 72.3% | 71.1% | about 3 times | 41 min | 31 min |
| 2.5 µM | 63.1 µM | 100 µM | CCOC(=O)C1=C[C@]2(CC)CCCN3CCc4c(n1c1ccccc41)[C@@H]32 [Drug B, Ethyl (+)-apovincaminate, reference compound] | 14.8% | 21.8% | 15.5% |  | 21 min | 11 min |
